Data from US9550738B2, “Bicyclic compounds as kinases inhibitors” (HangzhouDeRenYuCheng Biotechnology Ltd, priority 2012, dated 2017).

Experiments:
Btk [1] = target: T1, Btk (Homo sapiens, UniProt Q06187); test: In vitro Btk competition binding assay (kinase-tagged T7 phage, liganded affinity beads, qPCR readout); design: made in house; host or cells: E. coli BL21-derived host (T7 phage display) or HEK-293 cells; settings: 11-point 3-fold serial dilution, top concentration 10,000 nM, Hill slope -1
T1 sequence (Q06187 whole entry, species assumed): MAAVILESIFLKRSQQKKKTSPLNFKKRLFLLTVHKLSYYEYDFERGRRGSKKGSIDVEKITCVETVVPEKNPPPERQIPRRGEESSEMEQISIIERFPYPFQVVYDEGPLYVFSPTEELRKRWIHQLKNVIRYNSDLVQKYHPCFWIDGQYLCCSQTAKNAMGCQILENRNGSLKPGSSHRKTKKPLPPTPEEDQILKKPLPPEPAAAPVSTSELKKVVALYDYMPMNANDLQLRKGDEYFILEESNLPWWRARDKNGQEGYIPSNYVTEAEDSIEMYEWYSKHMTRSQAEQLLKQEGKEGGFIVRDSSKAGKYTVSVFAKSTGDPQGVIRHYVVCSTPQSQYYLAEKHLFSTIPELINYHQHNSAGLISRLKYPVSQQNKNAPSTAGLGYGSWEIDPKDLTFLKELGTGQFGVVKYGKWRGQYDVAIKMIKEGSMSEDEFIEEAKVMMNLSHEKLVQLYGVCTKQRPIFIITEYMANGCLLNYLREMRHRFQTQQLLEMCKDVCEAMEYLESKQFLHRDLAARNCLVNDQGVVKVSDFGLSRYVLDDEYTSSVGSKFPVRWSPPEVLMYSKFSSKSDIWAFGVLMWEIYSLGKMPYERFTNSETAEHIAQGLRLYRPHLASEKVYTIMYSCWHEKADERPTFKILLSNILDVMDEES
Procedure: An in vitro assay which determines the ability of a test compound to inhibit Btk.
Kinase-tagged T7 phage strains were prepared in an E. coli host derived from the BL21 strain. E. coli were grown to log-phase and infected with T7 phage and incubated with shaking at 32° C. until lysis. The lysates were centrifuged and filtered to remove cell debris. The remaining kinases were produced in HEK-293 cells and subsequently tagged with DNA for qPCR detection. Streptavidin-coated magnetic beads were treated with biotinylated small molecule ligands for 30 minutes at room temperature to generate affinity resins for kinase assays. The liganded beads were blocked with excess biotin and washed with blocking buffer (SeaBlock (Pierce), 1% BSA, 0.05% Tween 20, 1 mM DTT) to remove unbound ligand and to reduce non-specific binding. Binding reactions were assembled by combining kinases, liganded affinity beads, and test compounds in 1× binding buffer (20% SeaBlock, 0.17× PBS, 0.05% Tween 20, 6 mM DTT). All reactions were performed in polystyrene 96-well plates in a final volume of 0.135 ml. The assay plates were incubated at room temperature with shaking for 1 hour and the affinity beads were washed with wash buffer (1× PBS, 0.05% Tween 20). The beads were then re-suspended in elution buffer (1× PBS, 0.05% Tween 20, 0.5 μM non-biotinylated affinity ligand) and incubated at room temperature with shaking for 30 minutes. The kinase concentration in the eluates was measured by qPCR.
An 11-point 3-fold serial dilution of each test compound was prepared in 100% DMSO at 100× final test concentration and subsequently diluted to 1× in the assay (final DMSO concentration=1%). Kds were determined using a compound top concentration=10,000 nM. If the initial Kd determined was <0.5 nM (the lowest concentration tested), the measurement was repeated with a serial dilution starting at a lower top concentration.
Binding constants (Kds) were calculated with a standard dose-response curve using the Hill equation: Response=Background+(Signal−Background)/(1+(Kd^Hill Slope/Dose^Hill Slope)). The Hill Slope was set to −1. Curves were fitted using a non-linear least square fit with the Levenberg-Marquardt algorithm.
The following Table 1 lists compounds representative of the invention and their corresponding inhibitory activity against Btk.

Btk [2] = target: T1, Btk; test: Btk Ramos Cellular Assay (phosphorylation of the Btk substrate PLC gamma.2 after anti-IgM stimulation); type: cell-based; settings: Ramos cells, 1 hour with compound at 1, 0.1, 0.01 or 0.001 μM, goat F(ab')2 Anti-Human IgM stimulation, blot for PLC gamma.2 phosphorylation; read-out: inhibition of Btk signaling in Ramos cellular assay, IC50
Procedure: Ramos cells were grown in suspension in T225 flasks, spun down, resuspended in 50 mL serum-free media and incubated for 1 hour. Compound was added to Ramos cells in serum free media to a final concentration of 1, 0.1, 0.01, or 0.001 μM. Ramos cells were incubated with compound for 1 hour, washed again and resuspended in 100 μL serum-free media. Cells were then stimulated with 1 μg of goat F(ab′)2 Anti-Human IgM and incubated on ice for 10 minutes to activate B cell receptor signaling pathways. After 10 minutes, the cells were washed once with PBS and then lysed on ice with Invitrogen Cell Extraction buffer. Sixteen μg total protein from lysates was loaded on gels and blots were probed for phosphorylation of the Btk substrate PLC gamma.2.

Kd (Btk [1]) [nM]	IC50 (Btk [2]) [nM]	SMILES
< 100		CN(C)C/C=C/C(=O)Nc1cc2c(Nc3ccc(Oc4ccccc4)cc3)ncnc2cc1O[C@H]1CCOC1 [Compound 35, (S,E)-4-(dimethylamino)-N-(4-((4-phenoxyphenyl)amino)-7-((tetrahydrofuran-3-yl)oxy)quinazolin-6-yl)but-2-enamide]
2.6	< 100	CCOc1cc2ncnc(Nc3ccc(Oc4ccccc4)cc3)c2cc1NC(=O)/C=C/CN(C)C [Compound 31, (E)-4-(dimethylamino)-N-(7-ethoxy-4-((4-phenoxyphenyl)amino)quinazolin-6-yl)but-2-enamide]
1.2		C=CC(=O)Nc1cc2c(Nc3ccc(Oc4ccccc4)cc3)ncnc2cc1OCC [Compound 37, N-(7-ethoxy-4-(4-phenoxyphenylamino)quinazolin-6-yl)acrylamide]
2.3		C=CC(=O)Nc1cc2c(Nc3ccc(Oc4ccccc4)cc3)ncnc2cc1OC [Compound 36, N-(7-methoxy-4-((4-phenoxyphenyl)amino)quinazolin-6-yl)acrylamide]
2.2	< 100	COc1cc2ncnc(Nc3ccc(Oc4ccccc4)cc3)c2cc1NC(=O)/C=C/CN(C)C [Compound 27, (E)-4-(dimethylamino)-N-(7-methoxy-4-((4-phenoxyphenyl)amino)quinazolin-6-yl)but-2-enamide]
< 100		C=CC(=O)Nc1cc2c(Nc3ccc(Oc4ccccc4)cc3)ncnc2cc1O[C@H]1CCOC1 [Compound 38, (S)-N-(4-((4-phenoxyphenyl)amino)-7-((tetrahydrofuran-3-yl)oxy)quinazolin-6-yl)acrylamide]
